The results in this text go back to patent US6509035B1, “Oral preparation of coenzyme a useful for lowering blood lipid and a method producing for same” (Shanghai Materia Medica Bioengineering Institute, priority 1999, dated 2003).

One experiment concerns peripheral platelet. Briefly: Effect of CoA on peripheral platelet of experimental dogs. The class given is in vivo, dog. On the procedure: Object: 10 experimental dogs were used and devided into 2 groups of 5 to which oral or injection preparations of CoA was adminisered, respectively. Their peripheral platelet samples were taken and tested at intervals to observe the differences between before and after administration.
Dosage of CoA: Oral administration group, 100 units per time, twice per day. Injection administration group, 35 units per time, twice per day.
Result: Statistical analysis were carried out on the changes of the number of platelets before and after the administration of CoA to dogs by individual comparison test. It is noted that exogenous CoA can improve the level of platelet in experimental dogs in a short time either administered by oral or injection route.

Another experiment has as its system serum cholesterol. Briefly: Effect of CoA on serum cholesterol in patients with hyperlipemia. The class given is in vivo, human. The following applies: oral 35 units three times daily. The procedure: (§1) Object: Individuals with plasma lipid more than 90% of upper limit of normal person were chosen, i.e. serum cholesterol >230 mg %, or triglyceride >160 mg %, 39 patients in total, 14 male, aged from 28-65; 25 female, aged from 32 to 70.
(§2) Oral dosage of CoA: one tablet per time, 35 units per tablet, administered on empty stomach three times daily. Three months was used as a course of treatment. During the course of the administration, the patients had diet same as the normal and stopped the administration of any other lipid-lowering medicament.
(§3) Measurement of plasma lipid: venous blood samples were taked from 12-14 hrs-fasting patients before administration and one month and 3 months after administration. Concentration of serum cholesterol and triglyceride were measured after isolation of serum. In the meantime, each patients' medical history was inquired, blood pressure was measured and liver function was determined.
(2) Effect on cholesterol: Statistical analysis was carried out on the difference of the concentration of serum cholesterol of patients with hyperlipemia between before and after the administration of CoA by individual comparison test.

The test system of another experiment is serum triglyceride. Briefly: Effect of CoA on serum triglyceride in patients with hyperlipemia. The class given is in vivo, human. The following applies: oral 35 units three times daily. On the procedure:
as §1, §2, §3
(1) Effect on triglyceride: Statistical analysis were carried out on the difference of the concentration of serum triglyceride of hyperlipemia patients between before and after the administration of CoA by individual comparison test.

Each structure is given as a SMILES string.

Regarding `CC(C)(COP(=O)(O)OP(=O)(O)OC[C@H]1O[C@@H](n2cnc3c(N)ncnc32)[C@H](O)[C@@H]1OP(=O)(O)O)[C@@H](O)C(=O)NCCC(=O)NCCS` [CoA, coenzyme A], the “Average increment of platelets” value in the experiment on peripheral platelet (injection administration group, day 8 (P<0.01)) is recorded as 170,800 /mm^3; in the experiment on peripheral platelet (oral administration group, day 6 (P<0.05)) it was 133,000 /mm^3. For the same compound, the “Average increment of platelet” value is 0.28 10,000/mm^3 in the experiment with peripheral platelet (injection administration, 35 units twice per day, sampling time 1); 7.44 10,000/mm^3 in the experiment with peripheral platelet (injection administration, 35 units twice per day, sampling time 3); 5.48 10,000/mm^3 in the experiment on peripheral platelet (injection administration, 35 units twice per day, sampling time 6); 17.08 10,000/mm^3 with peripheral platelet (injection administration, 35 units twice per day, sampling time 8); 11.36 10,000/mm^3 with peripheral platelet (injection administration, 35 units twice per day, sampling time 10); 3.68 10,000/mm^3 with peripheral platelet (injection administration, 35 units twice per day, sampling time 13). For the same compound, the “Average increment of platelet” value is given as 8.64 10,000/mm^3 with peripheral platelet (oral administration, 100 units twice per day, sampling time 1); 8.06 10,000/mm^3 with peripheral platelet (oral administration, 100 units twice per day, sampling time 3); 13.3 10,000/mm^3 in the experiment with peripheral platelet (oral administration, 100 units twice per day, sampling time 6); 4.25 10,000/mm^3 with peripheral platelet (oral administration, 100 units twice per day, sampling time 8); 1.96 10,000/mm^3 in the experiment on peripheral platelet (oral administration, 100 units twice per day, sampling time 10); −2.52 10,000/mm^3 in the experiment on peripheral platelet (oral administration, 100 units twice per day, sampling time 13). In addition, the “Average difference of serum cholesterol concentration between before and after administration (decrement)” value in the experiment on serum cholesterol (one month) was 25.7 mg %; in the experiment with serum cholesterol (three months), 22.1 mg %. Besides, the “Average difference of triglyceride concentration between before and after administration (decrement)” value with serum triglyceride (one month) was 64.2 mg %; in the experiment with serum triglyceride (three months) it was 75.5 mg %.
